Measurements: US7939526B2, “Sulfone substituted imidazo ring ethers” (3M Innovative Properties Company, priority 2003, dated 2011)

SMILES	melting point [°C]
Cc1nc2c(N)nc3ccccc3c2n1CCOCCS(C)(=O)=O [Example 1, 2-Methyl-1-{2-[2-(methylsulfonyl)ethoxy]ethyl}-1H-imidazo[4,5-c]quinolin-4-amine]	214 to 217
CCCCc1nc2c(N)nc3ccccc3c2n1CCOCCS(C)(=O)=O [Example 2, 2-Butyl-1-{2-[2-(methylsulfonyl)ethoxy]ethyl}-1H-imidazo[4,5-c]quinolin-4-amine]	168 to 170
CS(=O)(=O)CCOCCn1cnc2c(N)nc3ccccc3c21 [Example 3, 1-{2-[2-(Methylsulfonyl)ethoxy]ethyl}-1H-imidazo[4,5-c]quinolin-4-amine]	145 to 148
CCCc1nc2c(N)nc3ccccc3c2n1CCOCCS(C)(=O)=O [Example 4, 1-{2-[2-(Methylsulfonyl)ethoxy]ethyl}-2-propyl-1H-imidazo[4,5-c]quinolin-4-amine]	150 to 152
CCc1nc2c(N)nc3ccccc3c2n1CCOCCS(C)(=O)=O [Example 5, 2-Ethyl-1-{2-[2-(methylsulfonyl)ethoxy]ethyl}-1H-imidazo[4,5-c]quinolin-4-amine]	160 to 163
CCOCc1nc2c(N)nc3ccccc3c2n1CCOCCS(C)(=O)=O [Example 6, 2-(Ethoxymethyl)-1-{2-[2-(methylsulfonyl)ethoxy]ethyl}-1H-imidazo[4,5-c]quinolin-4-amine]	158 to 160
COCCc1nc2c(N)nc3ccccc3c2n1CCOCCS(C)(=O)=O [Example 7, 2-(2-Methoxyethyl)-1-{2-[2-(methylsulfonyl)ethoxy]ethyl}-1H-imidazo[4,5-c]quinolin-4-amine]	142 to 144
CCOCc1nc2c(N)nc3ccccc3c2n1CC(C)(C)OCCS(=O)(=O)c1ccccc1 [Example 8, 2-Ethoxymethyl-1-{2-[2-(phenylsulfonyl)ethoxy]-2-methylpropyl}-1H-imidazo[4,5-c]quinolin-4-amine]	187 to 189
CCOCc1nc2c(N)nc3ccccc3c2n1CC(C)(C)OCCS(C)(=O)=O [Example 9, 2-Ethoxymethyl-1-{2-[2-(methylsulfonyl)ethoxy]-2-methylpropyl}-1H-imidazo[4,5-c]quinolin-4-amine]	183 to 185
Cc1nc2c(N)nc3c(c2n1CCOCCS(C)(=O)=O)CCCC3 [Example 10, 1-{2-[2-(Methylsulfonyl)ethoxy]ethyl}-2-methyl-6,7,8,9-tetrahydro-1H-imidazo[4,5-c]quinolin-4-amine]	173 to 175
CCCc1nc2c(N)nc3c(c2n1CCOCCS(C)(=O)=O)CCCC3 [Example 11, 1-{2-[2-(Methylsulfonyl)ethoxy]ethyl}-2-propyl-6,7,8,9-tetrahydro-1H-imidazo[4,5-c]quinolin-4-amine]	153 to 155
CCc1nc2c(N)nc3c(c2n1CCOCCS(C)(=O)=O)CCCC3 [Example 12, 2-Ethyl-1-{2-[2-(methylsulfonyl)ethoxy]ethyl}-6,7,8,9-tetrahydro-1H-imidazo[4,5-c]quinolin-4-amine]	146 to 148
CCCc1nc2c(N)nc3ccccc3c2n1CCOCCCS(=O)(=O)c1ccccc1 [Example 13, 1-{2-[3-(Phenylsulfonyl)propoxy]ethyl}-2-propyl-1H-imidazo[4,5-c]quinolin-4-amine]	160 to 161
CCCc1nc2c(N)nc3ccccc3c2n1CCOCCCS(=O)(=O)C(C)C [Example 14, 1-(2-{3-[(1-Methylethyl)sulfonyl]propoxy}ethyl)-2-propyl-1H-imidazo[4,5-c]quinolin-4-amine]	176 to 177
CCCc1nc2c(N)nc3ccccc3c2n1CCOCCCS(=O)(=O)c1ccccc1C [Example 15, 1-(2-{3-[(2-Methylphenyl)sulfonyl]propoxy}ethyl)-2-propyl-1H-imidazo[4,5-c]quinolin-4-amine]	159 to 160
CCCc1nc2c(N)nc3ccccc3c2n1CCOCCCS(=O)(=O)c1ccccn1 [Example 16, 2-Propyl-1-(2-{3-[(pyridin-2-yl)sulfonyl]propoxy}ethyl)-1H-imidazo[4,5-c]quinolin-4-amine]	150 to 151
CCCc1nc2c(N)nc3ccccc3c2n1CCOCCCSC [Example 17, 1-{2-[3-(Methylthio)propoxy]ethyl}-2-propyl-1H-imidazo[4,5-c]quinolin-4-amine]	99 to 101
CCCc1nc2c(N)nc3ccccc3c2n1CCOCCC[S+](C)[O-] (centres unmarked) [Example 18]	148 to 151
CCCc1nc2c(N)nc3ccccc3c2n1CCOCCCS(C)(=O)=O [Example 19, 1-{2-[3-(Methylsulfonyl)propoxy]ethyl}-2-propyl-1H-imidazo[4,5-c]quinolin-4-amine]	149 to 151

SMILES	melting point [°C]
CCCCCCCCCCS(=O)(=O)CCCOCCn1c(CCC)nc2c(N)nc3ccccc3c21 [Example 20, 1-{2-[3-(Decane-1-sulfonyl)propoxy]ethyl}-2-propyl-1H-imidazo[4,5-c]quinolin-4-amine]	84 to 86
Cc1nc2c(N)nc3ccccc3c2n1CC(C)(C)OCCS(C)(=O)=O [Example 21, 2-Methyl-1-{2-methyl-2-[2-(methylsulfonyl)ethoxy]propyl}-1H-imidazo[4,5-c]quinolin-4-amine]	253 to 255
CCCc1nc2c(N)nc3ccccc3c2n1CC(C)(C)OCCS(C)(=O)=O [Example 22, 1-{2-Methyl-2-[2-(methylsulfonyl)ethoxy]propyl}-2-propyl-1H-imidazo[4,5-c]quinolin-4-amine]	203 to 206
CCOCc1nc2c(N)nc3ccccc3c2n1CC1(OCCS(C)(=O)=O)CCCC1 [Example 23, 2-(Ethoxymethyl)-1-({1-[2-(methylsulfonyl)ethoxy]cyclopentyl}methyl)-1H-imidazo[4,5-c]quinolin-4-amine]	163 to 165
CCOCc1nc2c(N)nc3ccccc3c2n1CC1(OCCS(C)(=O)=O)CCCCC1 [Example 24, 2-(Ethoxymethyl)-1-({1-[2-(methylsulfonyl)ethoxy]cyclohexyl}methyl)-1H-imidazo[4,5-c]quinolin-4-amine]	159 to 161
CCCCCCc1nc2c(N)nc3ccccc3c2n1CCOCCS(C)(=O)=O [Example 25, 2-Hexyl-1-{2-[2-(methylsulfonyl)ethoxy]ethyl}-1H-imidazo[4,5-c]quinolin-4-amine]	158 to 160
CCOCc1nc2c(N)nc3ccccc3c2n1CC1(OCCS(C)(=O)=O)CCC1 [Example 26, 2-(Ethoxymethyl)-1-({1-[2-(methylsulfonyl)ethoxy]cyclobutyl}methyl)-1H-imidazo[4,5-c]quinolin-4-amine]	221 to 223
CCOCc1nc2c(N)nc3c(c2n1CC1(OCCS(C)(=O)=O)CCC1)CCCC3 [Example 27, 2-(Ethoxymethyl)-1-({1-[2-(methylsulfonyl)ethoxy]cyclobutyl}methyl)-6,7,8,9-tetrahydro-1H-imidazo[4,5-c]quinolin-4-amine]	186 to 188
CCOCc1nc2c(N)nc3c(c2n1CC(C)(C)OCCS(C)(=O)=O)CCCC3 [Example 28, 2-(Ethoxymethyl)-1-{2-methyl-2-[2-(methylsulfonyl)ethoxy]propyl}-6,7,8,9-tetrahydro-1H-imidazo[4,5-c]quinolin-4-amine]	150 to 153
CC(C)(Cn1cnc2c(N)nc3ccccc3c21)OCCS(C)(=O)=O [Example 29, 1-{2-Methyl-2-[2-(methylsulfonyl)ethoxy]propyl}-1H-imidazo[4,5-c]quinolin-4-amine]	261 to 264
Cc1nc2c(N)nc3c(c2n1CC(C)(C)OCCS(C)(=O)=O)CCCC3 [Example 30, 2-Methyl-1-{2-methyl-2-[2-(methylsulfonyl)ethoxy]propyl}-6,7,8,9-tetrahydro-1H-imidazo[4,5-c]quinolin-4-amine]	226 to 229
CC(C)(Cn1cnc2c(N)nc3c(c21)CCCC3)OCCS(C)(=O)=O [Example 31, 1-{2-Methyl-2-[2-(methylsulfonyl)ethoxy]propyl}-6,7,8,9-tetrahydro-1H-imidazo[4,5-c]quinolin-4-amine]	219 to 223
CCCCc1nc2c(N)nc3ccccc3c2n1CC(C)(C)OCCS(C)(=O)=O [Example 32, 2-Butyl-1-{2-methyl-2-[2-(methylsulfonyl)ethoxy]propyl}-1H-imidazo[4,5-c]quinolin-4-amine]	196 to 198
CCCCc1nc2c(N)nc3c(c2n1CC(C)(C)OCCS(C)(=O)=O)CCCC3 [Example 33, 2-Butyl-1-{2-methyl-2-[2-(methylsulfonyl)ethoxy]propyl}-6,7,8,9-tetrahydro-1H-imidazo[4,5-c]quinolin-4-amine]	146 to 148
CCOCc1nc2c(N)nc3ccccc3c2n1CC1(OCCS(C)(=O)=O)CC1 [Example 34, 2-(Ethoxymethyl)-1-({1-[2-(methylsulfonyl)ethoxy]cyclopropyl}methyl)-1H-imidazo[4,5-c]quinolin-4-amine]	169 to 171
CCCc1nc2c(N)nc3c(c2n1CC(C)(C)OCCS(C)(=O)=O)CCCC3 [Example 35, 1-{2-Methyl-2-[2-(methylsulfonyl)ethoxy]propyl}-2-propyl-6,7,8,9-tetrahydro-1H-imidazo[4,5-c]quinolin-4-amine]	188 to 190
CCc1nc2c(N)nc3ccccc3c2n1CC(C)(C)OCCS(C)(=O)=O [Example 36, 2-Ethyl-1-{2-methyl-2-[2-(methylsulfonyl)ethoxy]propyl}-1H-imidazo[4,5-c]quinolin-4-amine]	206 to 209
CCc1nc2c(N)nc3c(c2n1CC(C)(C)OCCS(C)(=O)=O)CCCC3 [Example 37, 2-Ethyl-1-{2-methyl-2-[2-(methylsulfonyl)ethoxy]propyl}-6,7,8,9-tetrahydro-1H-imidazo[4,5-c]quinolin-4-amine]	225 to 227
COCc1nc2c(N)nc3ccccc3c2n1CC(C)(C)OCCS(C)(=O)=O [Example 38, 2-(Methoxymethyl)-1-{2-methyl-2-[2-(methylsulfonyl)ethoxy]propyl}-1H-imidazo[4,5-c]quinolin-4-amine]	186 to 189
